Source: patent US20220033407A1, “N-(pyridin-2-ylsulfonyl)cyclopropanecarboxamide Derivatives and their Use in the Treatment of Disease” (NOVARTIS AG, priority 2018, published 2022)

How the values were obtained:
delF508-CFTR = biological target: T1, delF508-CFTR (Homo sapiens, UniProt P13569, DEL508-508); test: delF508-CFTR functional activity in primary human bronchial epithelial cells (HBECs), Multi-Transepithelial Clamp Circuit (MTECC-24) assay, equivalent short circuit current; type: cell-based; settings: primary CF HBECs; for MTECC24 CFHBEC-Amax %: relative to reference combination 2 μM 3-(6-(1-(2,2-difluorobenzo[d][1,3]dioxol-5-yl)cyclopropane-1-carboxamido)-3-methylpyridin-2-yl)benzoic acid (24 h) + 0.5 μM N-(2,4-di-tert-butyl-5-hydroxyphenyl)-4-oxo-1,4-dihydroquinoline-3-carboxamide; for EC50: test compound added 24 h before assay, potentiator (S)-3-amino-6-methoxy-N-(3,3,3-trifluoro-2-hydroxy-2-methylpropyl)-5-(trifluoromethyl)picolinamide present at assay, mean of at least two replicates, read-out: MTECC24 CFHBEC-EC50
T1 construct: functional activity of the CFTR channel (Chloride ion transport) in patient derived primary human bronchial epithelial cells; host or cells: patient-derived primary human bronchial epithelial cells (HBECs), delF508-CFTR
T1 sequence (P13569 with tags, fused parts or gaps DEL508-508): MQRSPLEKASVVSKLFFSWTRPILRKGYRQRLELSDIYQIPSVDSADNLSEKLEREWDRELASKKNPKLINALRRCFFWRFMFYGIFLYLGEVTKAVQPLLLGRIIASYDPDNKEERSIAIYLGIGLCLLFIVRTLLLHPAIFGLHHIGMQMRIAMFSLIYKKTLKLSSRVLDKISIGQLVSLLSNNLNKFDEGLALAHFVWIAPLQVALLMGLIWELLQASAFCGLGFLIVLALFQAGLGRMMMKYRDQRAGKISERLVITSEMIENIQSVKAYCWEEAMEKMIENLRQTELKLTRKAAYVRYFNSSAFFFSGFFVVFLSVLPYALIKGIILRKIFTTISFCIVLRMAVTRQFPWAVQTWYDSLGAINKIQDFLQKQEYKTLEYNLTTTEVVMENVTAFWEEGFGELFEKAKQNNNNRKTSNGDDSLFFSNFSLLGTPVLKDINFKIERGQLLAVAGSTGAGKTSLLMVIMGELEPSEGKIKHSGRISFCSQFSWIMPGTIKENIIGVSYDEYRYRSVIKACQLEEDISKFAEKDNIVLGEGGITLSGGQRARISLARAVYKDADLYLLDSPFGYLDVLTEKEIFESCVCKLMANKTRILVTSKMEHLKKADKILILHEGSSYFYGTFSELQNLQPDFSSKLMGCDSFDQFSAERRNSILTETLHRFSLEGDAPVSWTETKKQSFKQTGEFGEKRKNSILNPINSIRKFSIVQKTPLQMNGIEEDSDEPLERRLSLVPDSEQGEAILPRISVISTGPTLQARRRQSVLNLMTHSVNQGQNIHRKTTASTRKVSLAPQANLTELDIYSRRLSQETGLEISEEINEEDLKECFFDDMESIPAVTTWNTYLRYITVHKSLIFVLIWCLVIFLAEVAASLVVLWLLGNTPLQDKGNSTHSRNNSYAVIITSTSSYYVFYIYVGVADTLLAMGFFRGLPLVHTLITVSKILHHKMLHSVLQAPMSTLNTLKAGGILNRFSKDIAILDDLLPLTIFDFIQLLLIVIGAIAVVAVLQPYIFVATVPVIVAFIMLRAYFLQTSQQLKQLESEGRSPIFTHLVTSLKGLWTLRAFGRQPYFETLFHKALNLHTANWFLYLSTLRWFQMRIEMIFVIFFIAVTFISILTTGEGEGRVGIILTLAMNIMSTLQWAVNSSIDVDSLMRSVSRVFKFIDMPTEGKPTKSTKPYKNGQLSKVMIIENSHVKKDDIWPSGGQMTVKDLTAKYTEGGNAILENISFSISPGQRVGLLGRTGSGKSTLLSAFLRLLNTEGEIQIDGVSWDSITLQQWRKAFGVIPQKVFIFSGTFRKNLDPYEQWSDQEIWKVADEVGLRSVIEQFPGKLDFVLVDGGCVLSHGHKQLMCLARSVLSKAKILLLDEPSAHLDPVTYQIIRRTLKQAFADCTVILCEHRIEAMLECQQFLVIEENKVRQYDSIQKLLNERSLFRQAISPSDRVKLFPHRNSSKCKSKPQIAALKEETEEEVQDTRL
Method in brief: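 Patient-derived delF508 HBECs, grown at air-liquid interface about two weeks, were corrected with compound basolaterally for 24 h. Compound was then re-added apically and basolaterally in HEPES pH7.4 assay medium, with sequential modulators including forskolin and the picolinamide potentiator. Ieq was recorded, normalised to 0.1% DMSO wells, and EC50 fitted from 10-point curves.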

delF508-CFTR-HRP = biological target: T2, delF508-CFTR-HRP (Homo sapiens, UniProt P13569, DEL508-508); test: Measurement of delF508-CFTR-HRP surface expression in CFBE41o- cells (HRP luminescence); type: cell-based; settings: for Emax: CFBE41o-, read-out: DelF508-CFTR-HRP Amax %; for EC50: mean of at least two replicates;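 as to DelF508-CFTR-HRP Amax %: percent efficacy relative to a reference CFTR corrector compound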
T2 construct: expressed in transfected cells
T2 sequence (P13569 with tags, fused parts or gaps DEL508-508): as above
Method in brief: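 Stably transfected CFBE41o- cells carrying HRP in the fourth extracellular loop of delF508-CFTR, induced with 500 ng/mL doxycycline for 48 h, then compound-treated 24 h at 37° C (10-point, 3-fold, top 10 μM). Surface HRP detected by luminescent substrate; EC50 from logistic fit, triplicates, normalized to lowest-concentration median.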

Row | SMILES | MTECC24 CFHBEC-Amax % (delF508-CFTR) [%] | EC50 (delF508-CFTR) [nM] | Emax (delF508-CFTR-HRP) [%] | EC50 (delF508-CFTR-HRP) [nM] | DelF508-CFTR-HRP Amax % (delF508-CFTR-HRP) [%]
1 | Cc1ccc(C2CCCCC2)c(OC2(C(=O)NS(=O)(=O)c3cccc(N4CCC(C(=O)O)CC4)n3)CC2)c1 [Example 2-6, 1-(6-(N-(1-(2-cyclohexyl-5-methylphenoxy)cyclopropanecarbonyl)sulfamoyl)pyridin-2-yl)piperidine-4-carboxylic acid] | 62 | 131 | 34 | 4560 | 
2 | C[C@]1(O)CCN(c2cccc(S(=O)(=O)NC(=O)C3(Oc4cc(Cl)ccc4C4CC5(CCC5)C4)CC3)n2)C1 (single isomer, unassigned) [Example 7-2-1] | 214.4 | 289 | 674 | 1420 | 
3 | Cc1ccc(C2CCC3(CCCC3)OC2)c(OC2(C(=O)NS(=O)(=O)c3cccc(N4CCC(O)(c5ccc(Cl)cc5)CC4)n3)CC2)c1 (single isomer, unassigned) [Example 11-3-2, N-((6-(4-(4-chlorophenyl)-4-hydroxypiperidin-1-yl)pyridin-2-yl)sulfonyl)-1-(5-methyl-2-(6-oxaspiro[4.5]decan-8-yl)phenoxy)cyclopropane-1-carboxamide] | 79.0 | 79 |  | 440 | 481.9
4 | C[C@@H]1CN(c2cccc(S(=O)(=O)NC(=O)C3(Oc4cc(Cl)ccc4C4CC5(CCC5)C4)CC3)n2)CCO1 [Example 7-13, (R)-1-(5-Chloro-2-(spiro[3.3]heptan-2-yl)phenoxy)-N-((6-(2-methylmorpholino)pyridin-2-yl)sulfonyl)cyclopropane-1-carboxamide] | 81.1 | 213 | 543 | 1290 | 
5 | Cc1ccc(C2CCCCC2)c(OC2(C(=O)NS(=O)(=O)c3cccc(N[C@H]4C[C@H](O)C4)n3)CC2)c1 [Example 2-35, 1-(2-Cyclohexyl-5-methylphenoxy)-N-((6-((trans-3-hydroxycyclobutyl)amino)pyridin-2-yl)sulfonyl)cyclopropane-1-carboxamide] | 76 | 108 | 235 | 2420 | 
